Source: patent US20250042889A1, “3CLPRO PROTEASE INHIBITOR” (SHANGHAI QILU PHARMACEUTICAL RESEARCH AND DEVELOPMENT …, priority 2021, published 2025)
Like-named read-outs stand apart in the source and are kept apart here.

Molecular target: SARS-COV-2 3CLpro/Mpro protease (Severe acute respiratory syndrome coronavirus 2 (2019-nCoV) (SARS-CoV-2), UniProt P0DTD1)
Test: Inhibitory effect on SARS-COV-2 3CLpro/Mpro protease by fluorescence resonance energy transfer
Format: biochemical
Settings: activity intervals A-D
[1] = read-out: IC50 (nM), Inhibition on SARS-CoV-2 3CLpro/Mpro protease
[2] = IC50 (nM), Inhibition on SARS-CoV-2 3CLpro/Mpro protease

| SMILES | IC50 [1] | IC50 [2] |
| --- | --- | --- |
| CNc1cncc(C(=O)N2CCC[C@@H](Nc3c(C(=O)N4CCn5ccnc5C4)cc(Br)cc3[N+](=O)[O-])C2)c1 [Example 352] | 10 to 50 nM | – |
| [2H]C1([2H])CN(C(=O)c2cc(Br)cc([N+](=O)[O-])c2N[C@@H]2CCCN(C(=O)c3cncc(NC)c3)C2)CC([2H])([2H])O1 [Example 353] | 10 to 50 nM | – |
| [2H]C1([2H])CC[C@@H](Nc2c(C(=O)N3C[C@@H](C)O[C@@H](C)C3)cc(Br)cc2[N+](=O)[O-])C([2H])([2H])N1C(=O)c1cncc(NC)c1 [Example 354] | 10 to 50 nM | – |
| CNc1cncc(C(=O)N2CCC[C@@H](Nc3c(C(=O)N4CCOC[C@H]4C)cc(Br)cc3[N+](=O)[O-])C2)c1 [Example 355] | 10 to 50 nM | – |
| CNc1cncc(C(=O)N2CCC[C@@H](Nc3c(C(=O)N4CCOC[C@@H]4C)cc(Br)cc3[N+](=O)[O-])C2)c1 [Example 356] | 10 to 50 nM | – |
| CNc1cncc(C(=O)N2CCC[C@@H](Nc3c(C(=O)N4C5COCC4C5)cc(Br)cc3[N+](=O)[O-])C2)c1 [Example 357, ((3R)-3-((2-(3-oxa-6-azabicyclo[3.1.1]heptan-6-carbonyl)-4-bromo-6-nitrophenyl)amino)piperidin-1-yl)(5-(methylamino)pyridin-3-yl)methanone] | – | 10 to 50 nM |
| CNc1cncc(C(=O)N2CCC[C@@H](Nc3c(C(=O)N4C5CCC4COC5)cc(Br)cc3[N+](=O)[O-])C2)c1 [Example 358] | – | 10 to 50 nM |
| CNc1cncc(C(=O)N2CCC[C@@H](Nc3c(C(=O)N4[C@H](C)COC[C@@H]4C)cc(Br)cc3[N+](=O)[O-])C2)c1 [Example 359] | 10 to 50 nM | – |
| CNc1cncc(C(=O)N2C[C@H](Nc3c(C(=O)N4CC5CCC(C4)O5)cc(Br)cc3[N+](=O)[O-])[C@@H](OC)C2)c1 [Example 360] | 10 to 50 nM | – |
| COCCN1CCN(C(=O)c2cc(Br)cc([N+](=O)[O-])c2N[C@@H]2CCCN(C(=O)[C@H]3CNCC(F)(F)C3)C2)CC1 [Example 361] | 10 to 50 nM | – |
| CNc1cncc(C(=O)N2C[C@H](Nc3c(C(=O)N4C[C@@H](C)O[C@@H](C)C4)cc(Br)cc3[N+](=O)[O-])C[C@H]2C(=O)N2CCNC(=O)C2)c1 [Example 364] | 50 to 100 nM | – |
| CNc1cncc(C(=O)N2C[C@H](Nc3c(C(=O)N4C[C@@H](C)O[C@@H](C)C4)cc(Br)cc3[N+](=O)[O-])C[C@H]2C(=O)N2CCc3nn(C)cc3C2)c1 [Example 365] | 50 to 100 nM | – |
| CNC(=O)[C@@H]1C[C@@H](Nc2c(C(=O)N3C[C@@H](C)O[C@@H](C)C3)cc(Br)cc2[N+](=O)[O-])CN1C(=O)c1cncc(NC)c1 [Example 366] | 10 to 50 nM | – |
| CNc1cncc(C(=O)N2C[C@H](Nc3c(C(=O)N4CCOC[C@H]4C)cc(Br)cc3[N+](=O)[O-])[C@@H](OC)C2)c1 [Example 367] | 10 to 50 nM | – |
| CNc1cncc(C(=O)N2CCC[C@@H](Nc3c(C(=O)N4CC(F)(F)OC(F)(F)C4)cc(Br)cc3[N+](=O)[O-])C2)c1 [Example 368, (R)-(5-bromo-2-((1-(5-(methylamino)nicotinoyl)piperidin-3-yl)amino)-3-nitrophenyl)(2,2,6,6-tetrafluoromorpholinyl)methanone] | 10 to 50 nM | – |
| CNc1cncc(C(=O)N2C[C@H](Nc3c(C(=O)N4C[C@@H](C)O[C@@H](C)C4)cc(Br)cc3[N+](=O)[O-])C[C@H]2C(=O)Nc2cnoc2)c1 [Example 369, (2S,4R)-4-((4-bromo-2-((2R,6S)-2,6-dimethylmorpholin-4-carbonyl)-6-nitrophenyl)amino)-N-(isoxazol-4-yl)-1-(5-(methylamino)nicotinoyl) pyrrolidin-2-formamide] | 50 to 100 nM | – |
| CNc1cncc(C(=O)N2C[C@H](Nc3c(C(=O)N4C[C@@H](C)O[C@@H](C)C4)cc(Br)cc3[N+](=O)[O-])C[C@H]2C(=O)Nc2cccc(Br)c2)c1 [Example 370] | 50 to 100 nM | – |
| CNc1cncc(C(=O)N2C[C@H](Nc3c(C(=O)N4C5CCCC4COC5)cc(Br)cc3[N+](=O)[O-])[C@@H](OC)C2)c1 [Example 371] | – | 10 to 50 nM |
| CNc1cncc(C(=O)N2C[C@H](Nc3c(C(=O)N4CCC(F)(F)CC4)cc(Br)cc3[N+](=O)[O-])[C@@H](OC)C2)c1 [Example 372] | 10 to 50 nM | – |
